Results reported in patent US11718612B2, “Inhibitors of receptor interacting protein kinase I for the treatment of disease” (Board of Regents, The University of Texas System, priority 2019, dated 2023).

Tested on: U937 cells
Test: Human U937 cellular necroptosis assay
Assay type: cell-based
Settings: U-937; U937 cells stimulated with 25 ng/mL human TNFalpha and 25 μM z-VAD-FMK; 22 hr; Cell Titer-Glo viability
Protocol: Human U937 Cellular Necroptosis Assay
The human monocytic cell line U937 (CRL-1593.2) may be purchased from ATCC. The cells are routinely maintained in RPMI-1640 Medium (Gibco, Catalog #11875-093) supplemented with 10% heat inactivated fetal bovine serum (Gibco, Catalog #16140-071), 100 units/mL penicillin and 100 μg/mL streptomycin (Gibco, Catalog #15140-122), in a humidified incubator (37° C., 5% CO2). For the assay, cells are resuspended in RPMI-1640 phenol red free Media (Gibco, Catalog #11835-030) supplemented with 10% fetal bovine serum (Sigma, Catalog #F2442), 100 units/mL penicillin and 100 ug/mL streptomycin. […] Stock solutions of the test compounds are prepared in 100% DMSO (Sigma, Catalog #D2650) and serially diluted 1:3 using 100% DMSO. Compounds are additionally diluted 1:40 in assay medium, and 10 μL/well was transferred to the plate. Following the compound addition, the plate is incubated at 37° C. and 5% CO2 for 22 hr. After 22 hr, viability is assessed with the addition of 20 μL of Cell Titer-Glo 2.0 (Promega, Catalog #G9243). The tissue culture plate is shaken on an orbital shaker at 300 RPM for 15 minutes at room temperature in the dark. Luminescence is measured using a PerkinElmer Envision™ plate reader. IC50 values are calculated using a four-parameter logistic curve fit using Genedata Screener software.

| Structure (SMILES) | IC50 [nM] |
| --- | --- |
| C[C@H](c1cccc(F)c1F)n1nc2c(c1Cl)CCN(c1cccc(Cl)c1F)C2=O (single isomer, unassigned) [Example 55a] | > 10000 |
| C[C@@H](c1cccc(F)c1F)n1nc2c(c1Cl)CCN(c1cccc(Cl)c1F)C2=O (single isomer, unassigned) [Example 55b] | 6390 |
| C[C@@H](c1cccc(C#N)c1)n1cnc(C(=O)Nc2cccc(Cl)c2F)n1 (single isomer, unassigned) [Example 56b] | > 10000 |
| O=C1c2nn(Cc3cccc(F)c3F)c(Cl)c2CCN1c1cccc(Cl)c1F [Example 1, 3-chloro-6-(3-chloro-2-fluoro-phenyl)-2-[(2,3-difluorophenyl)methyl]-4,5-dihydropyrazolo[3,4-c]pyridin-7-one] | 34.2 |
| CC(c1cccc(F)c1F)n1nc2c(c1Cl)CCN(c1cccc(Cl)c1F)C2=O (centres unmarked) [Example 55, 3-chloro-6-(3-chloro-2-fluorophenyl)-2-(1-(2,3-difluorophenyl)ethyl)-2,4,5,6-tetrahydro-7H-pyrazolo[3,4-c]pyridin-7-one] | > 10000 |
| CC(c1cccc(C#N)c1)n1cnc(C(=O)Nc2cccc(Cl)c2F)n1 (centres unmarked) [Example 56, N-(3-chloro-2-fluorophenyl)-1-(1-(3-cyanophenyl)ethyl)-1H-1,2,4-triazole-3-carboxamide] | 1510 |
| N#Cc1cccc(Cn2nc3c(c2Cl)CCN(c2cccc(Cl)c2F)C3=O)c1 [Example 58, 3-((3-Chloro-6-(3-chloro-2-fluorophenyl)-7-oxo-4,5,6,7-tetrahydro-2H-pyrazolo[3,4-c]pyridin-2-yl)methyl)benzonitrile] | 95.9 |
| N#Cc1cccc(Cn2cc3c(n2)C(=O)N(c2cccc(Cl)c2F)CC3)c1 [Example 59, 3-((6-(3-chloro-2-fluorophenyl)-7-oxo-4,5,6,7-tetrahydro-2H-pyrazolo[3,4-c]pyridin-2-yl)methyl)benzonitrile] | 811 |
| Nc1c2c(nn1Cc1ccccc1)C(=O)N(c1cccc(Cl)c1F)CC2 [Example 60, 3-amino-2-benzyl-6-(3-chloro-2-fluorophenyl)-2,4,5,6-tetrahydro-7H-pyrazolo[3,4-c]pyridin-7-one] | 1260 |
| O=C1c2nn(Cc3ccccc3)c(Br)c2CCN1c1cccc(Cl)c1F [Example 61, 2-benzyl-3-bromo-6-(3-chloro-2-fluorophenyl)-2,4,5,6-tetrahydro-7H-pyrazolo[3,4-c]pyridin-7-one] | 44.6 |
| O=C1c2nn(Cc3cnccn3)c(Cl)c2CCN1c1cccc(Cl)c1F [Example 62, 3-chloro-6-(3-chloro-2-fluorophenyl)-2-(pyrazin-2-yl-methyl)-2,4,5,6-tetrahydro-7H-pyrazolo[3,4-c]pyridin-7-one] | 53.7 |
| O=C1c2nn(Cc3ncccc3F)c(Cl)c2CCN1c1cccc(Cl)c1F [Example 63, 3-chloro-6-(3-chloro-2-fluorophenyl)-2-((3-fluoropyridin-2-yl)methyl)-2,4,5,6-tetrahydro-7H-pyrazolo[3,4-c]pyridin-7-one] | 64.1 |
| O=C1c2nn(Cc3ncccc3Cl)c(Cl)c2CCN1c1cccc(Cl)c1F [Example 64, 3-chloro-6-(3-chloro-2-fluorophenyl)-2-((3-chloropyridin-2-yl)methyl)-2,4,5,6-tetrahydro-7H-pyrazolo[3,4-c]pyridin-7-one] | 130 |
| Cc1ccc(Cn2nc3c(c2Cl)CCN(c2cccc(Cl)c2F)C3=O)cc1 [Example 65, 3-chloro-6-(3-chloro-2-fluorophenyl)-2-(4-methylbenzyl)-2,4,5,6-tetrahydro-7H-pyrazolo[3,4-c]pyridin-7-one] | 207 |
| O=C1c2nn(Cc3ccc(F)cc3)c(Cl)c2CCN1c1cccc(Cl)c1F [Example 66, 3-chloro-6-(3-chloro-2-fluorophenyl)-2-(4-fluorobenzyl)-2,4,5,6-tetrahydro-7H-pyrazolo[3,4-c]pyridin-7-one] | 291 |
| Cc1cccc(Cn2nc3c(c2Cl)CCN(c2cccc(Cl)c2F)C3=O)c1 [Example 67, 3-chloro-6-(3-chloro-2-fluorophenyl)-2-(3-methylbenzyl)-2,4,5,6-tetrahydro-7H-pyrazolo[3,4-c]pyridin-7-one] | 444 |

| Structure (SMILES) | IC50 [nM] |
| --- | --- |
| Cn1cc(Cn2nc3c(c2Cl)CCN(c2cccc(Cl)c2F)C3=O)cn1 [Example 68, 3-chloro-6-(3-chloro-2-fluorophenyl)-2-((1-methyl-1H-pyrazol-4-yl)-methyl)-2,4,5,6-tetrahydro-7H-pyrazolo[3,4-c]pyridin-7-one] | 1340 |
| O=C1c2nn(CC3CCCOC3)c(Cl)c2CCN1c1cccc(Cl)c1F (centres unmarked) [Example 69, 3-chloro-6-(3-chloro-2-fluorophenyl)-2-((tetrahydro-2H-pyran-3-yl)methyl)-2,4,5,6-tetrahydro-7H-pyrazolo[3,4-c]pyridin-7-one] | 563 |
| Cc1c2c(nn1Cc1ccccc1)C(=O)N(c1cccc(Cl)c1F)CC2 [Example 70, 2-benzyl-6-(3-chloro-2-fluorophenyl)-3-methyl-2,4,5,6-tetrahydro-7H-pyrazolo[3,4-c]pyridin-7-one] | 233 |
| N#Cc1c2c(nn1Cc1ccccc1)C(=O)N(c1cccc(Cl)c1F)CC2 [Example 71, 2-benzyl-6-(3-chloro-2-fluorophenyl)-7-oxo-4,5,6,7-tetrahydro-2H-pyrazolo[3,4-c]pyridine-3-carbonitrile] | 256 |
| NCc1c2c(nn1Cc1ccccc1)C(=O)N(c1cccc(Cl)c1F)CC2 [Example 72, 3-(aminomethyl)-2-benzyl-6-(3-chloro-2-fluorophenyl)-2,4,5,6-tetrahydro-7H-pyrazolo[3,4-c]pyridin-7-one] | 6110 |
| O=C1c2nn(Cc3ccccc3)c(CO)c2CCN1c1cccc(Cl)c1F [Example 73, 2-benzyl-6-(3-chloro-2-fluorophenyl)-3-(hydroxymethyl)-2,4,5,6-tetrahydro-7H-pyrazolo[3,4-c]pyridin-7-one] | 348 |
| O=C1c2nn(Cc3ccccc3)c(C(F)F)c2CCN1c1cccc(Cl)c1F [Example 74, 2-Benzyl-6-(3-chloro-2-fluorophenyl)-3-(difluoromethyl)-2,4,5,6-tetrahydro-7H-pyrazolo[3,4-c]pyridin-7-one] | 42 |
| O=C1c2nn(Cc3ncccc3F)c(Cl)c2CCN1c1cc(CO)cc(Cl)c1F [Example 76, 3-chloro-6-(3-chloro-2-fluoro-5-(hydroxymethyl)phenyl)-2-((3-fluoropyridin-2-yl)methyl)-2,4,5,6-tetrahydro-7H-pyrazolo[3,4-c]pyridin-7-one] | 917 |
| O=C1c2nn(Cc3ncccc3F)cc2CCN1c1cc(CO)cc(Cl)c1F [Example 77, 6-(3-chloro-2-fluoro-5-(hydroxymethyl)phenyl)-2-((3-fluoropyridin-2-yl)methyl)-2,4,5,6-tetrahydro-7H-pyrazolo[3,4-c]pyridin-7-one] | 594 |
| CN(C)Cc1cc(Cl)c(F)c(N2CCc3c(nn(Cc4ncccc4F)c3Cl)C2=O)c1 [Example 78, 3-chloro-6-(3-chloro-5-((dimethylamino)methyl)-2-fluorophenyl)-2-((3-fluoropyridin-2-yl)methyl)-2,4,5,6-tetrahydro-7H-pyrazolo[3,4-c]pyridin-7-one] | > 10000 |
| O=C1c2nn(Cc3cccc(F)c3F)c(Cl)c2CCN1c1cc(CO)cc(Cl)c1F [Example 79, 3-chloro-6-(3-chloro-2-fluoro-5-(hydroxymethyl)phenyl)-2-(2,3-difluorobenzyl)-2,4,5,6-tetrahydro-7H-pyrazolo[3,4-c]pyridin-7-one] | 346 |
| COCCOCc1cc(Cl)c(F)c(N2CCc3c(nn(Cc4cccc(F)c4F)c3Cl)C2=O)c1 [Example 80, 3-chloro-6-(3-chloro-2-fluoro-5-((2-methoxyethoxy)methyl)phenyl)-2-(2,3-difluorobenzyl)-2,4,5,6-tetrahydro-7H-pyrazolo[3,4-c]pyridin-7-one] | 958 |
| COCc1cc(Cl)c(F)c(N2CCc3c(nn(Cc4cccc(F)c4F)c3Cl)C2=O)c1 [Example 81, 3-chloro-6-(3-chloro-2-fluoro-5-(methoxymethyl)phenyl)-2-(2,3-difluorobenzyl)-2,4,5,6-tetrahydro-7H-pyrazolo[3,4-c]pyridin-7-one] | > 10000 |
| O=C1c2nn(Cc3cccc(F)c3F)c(Cl)c2CCN1c1cc(Cn2ccnc2)cc(Cl)c1F [Example 82, 6-(5-((1H-imidazol-1-yl)methyl)-3-chloro-2-fluorophenyl)-3-chloro-2-(2,3-difluorobenzyl)-2,4,5,6-tetrahydro-7H-pyrazolo[3,4-c]pyridin-7-one] | 863 |
| O=C1c2nn(Cc3cccc(F)c3F)c(Cl)c2CCN1c1cc(CNCC(F)(F)F)cc(Cl)c1F [Example 83, 3-chloro-6-(3-chloro-2-fluoro-5-(((2,2,2-trifluoroethyl)amino)methyl)phenyl)-2-(2,3-difluorobenzyl)-2,4,5,6-tetrahydro-7H-pyrazolo[3,4-c]pyridin-7-one] | 1230 |
| N#CCc1cc(Cl)c(F)c(N2CCc3c(nn(Cc4cccc(F)c4F)c3Cl)C2=O)c1 [Example 84, 2-(3-chloro-5-(3-chloro-2-(2,3-difluorobenzyl)-7-oxo-2,4,5,7-tetrahydro-6H-pyrazolo[3,4-c]pyridin-6-yl)-4-fluorophenyl)acetonitrile] | 142 |
